Patent US20230134760A1, “CAR AND NRF2 DUAL ACTIVATOR AGENTS FOR CYCLOPHOSPHAMIDE-BASED AND DOXORUBICIN-BASED TREATMENTS OF CANCER” (priority 2020, published 2023)

What was measured:
CYP2B6 = type: cell-based; conditions: human, hepatocytes
Description: HPH were obtained from BIOIVT (Baltimore, Md.) and seeded at 1.5×10^6 or 7.5×10^5 cells/well in 6- or 12-well collagen I-coated plates, while 24-well collagen I-coated plates were seeded at 3.75×10^5 cells/well as described previously. 24 hours after seeding, HPH were cultured cells were overlaid with 0.25 mg/mL Matrigel Corning, Corning, N.Y.) 24 h after seeding in serum-free William's E Medium (WEM) supplemented with ITS+(insulin, transferrin, and selenium, 100×; […] Millipore Sigma), 100 U/ml penicillin, and 100 μg/ml streptomycin (Pen-Strep; ThermoFisher Scientific, Waltham, Mass.), and 2 mM L-glutamine (Invitrogen, Carlsbad, Calif.). Overlaid HPH were treated with compounds in Complete WEM (CYP2B6 and CYP3A4 studies and coculture studies). After 24 h treatment, HPH, BT549, MDA-MB-231, and H9c2 cells were washed and a phenol-chloroform extraction was used to isolate total RNA with the TRIzol reagent (ThermoFisher, Rockford, Ill.). Reverse transcription was performed on extracted RNA (1 μg) to produce cDNA using the High Capacity cDNA Archive kit according to manufacturer's instructions (Applied Biosystems, Foster, Calif.). […] Quantification of expression changes was done by the 2^ΔΔCt method, normalizing to GAPDH as the housekeeping gene and determining the fold change compared to control values (n=3). […]

H9c2 cells = test: Cell viability assay, DOX-induced toxicity in H9c2 cells; type: cell-based, rat
Description: H9c2 cells were seeded 0.8×10^5 in 24-well plates. Following cell attachment, a 2 h pre-treatment with vehicle control (0.1% DMSO), SFN (2.5 μM) or DL7076 (1 μM, 5 μM, or 10 μM) was done followed by doxorubicin (2.5 μM) exposure for 22 h. Co-culture cells were assembled and treated with cyclophosphamide and doxorubicin as indicated. A Cell Counting Kit-8 (Enzo) assay was carried out. Cell viability was described as a percent of vehicle control (0.1% DMSO). Cardiomyocyte, human iPSC-derived cardiomyocytes, and BT549 viability was determined with a 1 hr incubation of 6% CCK8 in WEM.

## O=C(NCCN=C=S)c1c(-c2ccc3ccccc3c2)nc2sccn12 [DL7076, N-(2-Isothiocyanatoethyl)-6-(naphthalen-2-yl)imidazo[2,1-b]thiazole-5-carboxamide]
CYP2B6
  CYP2B6 protein induction: clear preferential induction of CYP2B6
H9c2 cells; H9c2, 1, 5, 10 μM
  cytotoxicity without DOX: no cytotoxicity
H9c2 cells; H9c2, 2 h pretreatment, 22 h cotreatment with DOX 2.5 μM
  reversal of DOX-induced cardiotoxicity (viability): concentration dependent reversal in the DOX-induced cardiotoxicity
